In patent US8604001B2, “Use of sulfated oligosaccharides as slimming cosmetic ingredients” (priority 2007, dated 2013):

Key:
normal human adipocytes [1] = assay: Inhibition of lipogenesis ([2-14C] acetate incorporation into lipids) in suspensions of human adipocytes; assay type: cell-based; details: 1 mM; for cpm (radioactivity of extracted lipids): 1 h preincubation, 4 h with [2-14C] acetate, control 472253
Procedure: The ex vivo inhibition of lipogenesis was evaluated in suspensions of human adipocytes which were isolated from a sampling taken during an abdominal plasty performed on a person. The adipocytes suspension was incubated for one hour at 37° C. with 3 or 5% of a solution of sulfated oligosaccharides prepared according to example 1 (hydrolysis time: 16 hours), or with a standard study solution (1 mM theophylline or caffeine), on in the absence of these solutions (control). Each assay was done in triplicate. A radioactive marker [2-^14C] acetate was then added to the various assays at a concentration of 2.5 μCi/mL. After 4 hours of incubation at 37° C., the lipids were extracted by a methanol/chloroform/water mixture and then dehydrated. The radioactivity, expressed in counts per minute (cpm), is then quantified through liquid scintigraphy (LKB 1210 Rackbeta). The statistical analysis was performed according to the Dunnett's multiple comparison test.

normal human adipocytes [2] = assay: Stimulation of lipolysis (Non-Esterified Fatty Acids released) in suspensions of human adipocytes; assay type: cell-based; details: 1 mM; for NEFA: 2 hours at 37° C., control 96
Procedure: The lipolysis stimulation activity was evaluated in suspensions of human adipocytes isolated from a sample taken during an abdominal plasty performed on a person. The adipocytes suspension was incubated, for 2 hours at 37° C. with 3 or 5% of a solution of sulfated oligosaccharides prepared according to example 1 (16 hours of, hydrolysis time) in percentage of total weight of the culture, or with standard study solutions (1 mM theophylline or caffeine) or in the absence of solutions (control). Each assay was performed 6 times. At the end of the incubation period, the Non-Esterified Fatty Acids (NEFA) which were; present in the incubation mediums were measured with commercially available dosage kits (OXOID 46 551).

[3] = tested on: thighs of healthy volunteers; assay: Slimming effect of hydro-alcohol gels: thigh circumference measured in centimeters over 8 weeks; details: for change of thigh circumference versus T0: hydro-alcohol gel applied twice a day, 25 volunteers

| SMILES | % Control (lipogenesis) (normal human adipocytes [1]) [%] | cpm (radioactivity of extracted lipids) (normal human adipocytes [1]) [cpm] | % Control (lipolysis, NEFA) (normal human adipocytes [2]) [%] | NEFA (normal human adipocytes [2]) [µM] | change of thigh circumference versus T0 ([3]; 14 days) [cm] | change of thigh circumference versus T0 ([3]; 28 days) [cm] | average decrease of the circumference of the thigh ([3]; 56 days, gel applied twice a day) [cm] | change of thigh circumference versus T0 ([3]; 56 days) [cm] | slimming effect (in words) ([3]; after 14 treatment days) |
| --- | --- | --- | --- | --- | --- | --- | --- | --- | --- |
| Cn1c(=O)c2c(ncn2C)n(C)c1=O [Caffeine, caffeine] | 4 | 20741 | 547 | 525 | 0 | −0.1 | 0.3 | −0.3 | no slimming effect |
| Cn1c(=O)c2[nH]cnc2n(C)c1=O [Theophylline, theophylline] | 6 | 27225 | 560 | 537 |  |  |  |  |  |
